Paper PMC6409085, “Three odorant-binding proteins are involved in the behavioral response of Sogatella furcifera to rice plant volatiles” (PeerJ, 2019)
Where “and” joins values, the source holds several entries; their conditions need not be identical. Equal entries are not always repeated.

Experiments:
SfurOBP2 = SfurOBP2 (Sogatella furcifera, UniProt V5T759); experiment: biochemical; type: binding
Method in brief: (§1)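 In 50 mM Tris-HCl pH 7.4, odorants displace 1-NPN (2.0 µM) from 2.0 µM protein. Emission at 390–490 nm under 337 nm excitation is measured 2 min after competitor addition, in triplicate. Ki is obtained from IC50 and the 1-NPN dissociation constant.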

SfurOBP11 = SfurOBP11 (Sogatella furcifera, UniProt V5T6E3); experiment: biochemical; type: binding
Chain of SfurOBP11 (V5T6E3 entry or part of it): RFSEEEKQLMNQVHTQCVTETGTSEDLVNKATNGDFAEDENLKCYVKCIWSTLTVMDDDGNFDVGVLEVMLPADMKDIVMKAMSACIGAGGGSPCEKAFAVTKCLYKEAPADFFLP
Method in brief: as §1

SfurOBP3 = SfurOBP3 (Sogatella furcifera, UniProt V5T818); experiment: biochemical; type: binding; conditions: for Fluorescence competitive binding assay, fluorescence intensity: OBP3, three replicate columns
Chain of SfurOBP3 (V5T818 entry or part of it): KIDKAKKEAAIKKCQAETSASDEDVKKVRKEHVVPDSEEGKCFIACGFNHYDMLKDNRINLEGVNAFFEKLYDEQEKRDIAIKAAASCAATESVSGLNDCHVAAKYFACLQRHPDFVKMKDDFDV
Method in brief: as §1

SfurOBP1 = SfurOBP1 (Sogatella furcifera, UniProt V5T8N5); experiment: biochemical; type: binding; conditions: for Fluorescence competitive binding assay, fluorescence intensity: OBP1, three replicate columns
Chain of SfurOBP1 (V5T8N5 entry or part of it): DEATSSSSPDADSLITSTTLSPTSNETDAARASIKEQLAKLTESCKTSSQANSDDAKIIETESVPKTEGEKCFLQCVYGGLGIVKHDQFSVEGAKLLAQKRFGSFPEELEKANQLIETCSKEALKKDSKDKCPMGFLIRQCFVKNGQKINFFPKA
Method in brief: as §1

S. furcifera adults = experiment: Y-tube olfactometer behavioral trials; type: in vivo, Sogatella furcifera; conditions: odorant 50 µL/L vs hexane
Method in brief: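 Single S. furcifera adults (2 days post-emergence, starved 0.5 h) chose between odorant (100 µL of 50 µL/L on filter paper) and hexane control in a glass Y-tube, charcoal-filtered humidified air 300 mL/min per arm, 25 ± 1 °C, 50% RH. Choice scored if insect passed half an arm and stayed >1 min within 10 min; 45 insects per compound, chi-squared test.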

Chain of SfurOBP2 (V5T759 entry or part of it): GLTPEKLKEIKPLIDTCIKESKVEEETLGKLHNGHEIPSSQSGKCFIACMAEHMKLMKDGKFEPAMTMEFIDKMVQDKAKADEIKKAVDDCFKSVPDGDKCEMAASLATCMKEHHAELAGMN

IC50 (SfurOBP2; SfurOBP2, protein and 1-NPN both 2.0 µM, competitor 2-20 µM, read-out: IC50): > 20 µM
Fluorescence competitive binding assay, OBP2 (raw fluorescence reading) (SfurOBP2; ligand concentration 2 (unit not given), replicate column 1 of 3): 19792
Fluorescence competitive binding assay, OBP2 (raw fluorescence reading) (SfurOBP2; ligand concentration 2 (unit not given), replicate column 2 of 3): 17859
Fluorescence competitive binding assay, OBP2 (raw fluorescence reading) (SfurOBP2; ligand concentration 2 (unit not given), replicate column 3 of 3): 20079
Fluorescence competitive binding assay, OBP2 (raw fluorescence reading) (SfurOBP2; ligand concentration 4 (unit not given), replicate column 1 of 3): 17338
Fluorescence competitive binding assay, OBP2 (raw fluorescence reading) (SfurOBP2; ligand concentration 4 (unit not given), replicate column 2 of 3): 18012
Fluorescence competitive binding assay, OBP2 (raw fluorescence reading) (SfurOBP2; ligand concentration 4 (unit not given), replicate column 3 of 3): 20388
Fluorescence competitive binding assay, OBP2 (raw fluorescence reading) (SfurOBP2; ligand concentration 6 (unit not given), replicate column 1 of 3): 17013
Fluorescence competitive binding assay, OBP2 (raw fluorescence reading) (SfurOBP2; ligand concentration 6 (unit not given), replicate column 2 of 3): 18530
Fluorescence competitive binding assay, OBP2 (raw fluorescence reading) (SfurOBP2; ligand concentration 6 (unit not given), replicate column 3 of 3): 19352
Fluorescence competitive binding assay, OBP2 (raw fluorescence reading) (SfurOBP2; ligand concentration 8 (unit not given), replicate column 1 of 3): 15771
Fluorescence competitive binding assay, OBP2 (raw fluorescence reading) (SfurOBP2; ligand concentration 8 (unit not given), replicate column 2 of 3): 11853
Fluorescence competitive binding assay, OBP2 (raw fluorescence reading) (SfurOBP2; ligand concentration 8 (unit not given), replicate column 3 of 3): 17932
Fluorescence competitive binding assay, OBP2 (raw fluorescence reading) (SfurOBP2; ligand concentration 10 (unit not given), replicate column 1 of 3): 15741
Fluorescence competitive binding assay, OBP2 (raw fluorescence reading) (SfurOBP2; ligand concentration 10 (unit not given), replicate column 2 of 3): 17236
Fluorescence competitive binding assay, OBP2 (raw fluorescence reading) (SfurOBP2; ligand concentration 10 (unit not given), replicate column 3 of 3): 17972
Fluorescence competitive binding assay, OBP2 (raw fluorescence reading) (SfurOBP2; ligand concentration 12 (unit not given), replicate column 1 of 3): 14577
Fluorescence competitive binding assay, OBP2 (raw fluorescence reading) (SfurOBP2; ligand concentration 12 (unit not given), replicate column 2 of 3): 14468
Fluorescence competitive binding assay, OBP2 (raw fluorescence reading) (SfurOBP2; ligand concentration 12 (unit not given), replicate column 3 of 3): 15583
Fluorescence competitive binding assay, OBP2 (raw fluorescence reading) (SfurOBP2; ligand concentration 14 (unit not given), replicate column 1 of 3): 14055
Fluorescence competitive binding assay, OBP2 (raw fluorescence reading) (SfurOBP2; ligand concentration 14 (unit not given), replicate column 2 of 3): 13126
Fluorescence competitive binding assay, OBP2 (raw fluorescence reading) (SfurOBP2; ligand concentration 14 (unit not given), replicate column 3 of 3): 14409
Fluorescence competitive binding assay, OBP2 (raw fluorescence reading) (SfurOBP2; ligand concentration 16 (unit not given), replicate column 1 of 3): 12777
Fluorescence competitive binding assay, OBP2 (raw fluorescence reading) (SfurOBP2; ligand concentration 16 (unit not given), replicate column 2 of 3): 13653
Fluorescence competitive binding assay, OBP2 (raw fluorescence reading) (SfurOBP2; ligand concentration 16 (unit not given), replicate column 3 of 3): 13817
Fluorescence competitive binding assay, OBP2 (raw fluorescence reading) (SfurOBP2; ligand concentration 18 (unit not given), replicate column 1 of 3): 17551
Fluorescence competitive binding assay, OBP2 (raw fluorescence reading) (SfurOBP2; ligand concentration 18 (unit not given), replicate column 2 of 3): 16085
Fluorescence competitive binding assay, OBP2 (raw fluorescence reading) (SfurOBP2; ligand concentration 18 (unit not given), replicate column 3 of 3): 21813
Fluorescence competitive binding assay, OBP2 (raw fluorescence reading) (SfurOBP2; ligand concentration 20 (unit not given), replicate column 1 of 3): 14165
Fluorescence competitive binding assay, OBP2 (raw fluorescence reading) (SfurOBP2; ligand concentration 20 (unit not given), replicate column 2 of 3): 14167
Fluorescence competitive binding assay, OBP2 (raw fluorescence reading) (SfurOBP2; ligand concentration 20 (unit not given), replicate column 3 of 3): 13571
IC50 (SfurOBP11; SfurOBP11, protein and 1-NPN both 2.0 µM, competitor 2-20 µM, read-out: IC50): > 20 µM
Fluorescence intensity, fluorescence competitive binding assay, OBP11 (SfurOBP11; ligand concentration 2, replicate 1): 24306
Fluorescence intensity, fluorescence competitive binding assay, OBP11 (SfurOBP11; ligand concentration 2, replicate 2): 24787
Fluorescence intensity, fluorescence competitive binding assay, OBP11 (SfurOBP11; ligand concentration 2, replicate 3): 25268
Fluorescence intensity, fluorescence competitive binding assay, OBP11 (SfurOBP11; ligand concentration 4, replicate 1): 24848
Fluorescence intensity, fluorescence competitive binding assay, OBP11 (SfurOBP11; ligand concentration 4, replicate 2): 24623
Fluorescence intensity, fluorescence competitive binding assay, OBP11 (SfurOBP11; ligand concentration 4, replicate 3): 25072
Fluorescence intensity, fluorescence competitive binding assay, OBP11 (SfurOBP11; ligand concentration 6, replicate 1): 24984
Fluorescence intensity, fluorescence competitive binding assay, OBP11 (SfurOBP11; ligand concentration 6, replicate 2): 24187
Fluorescence intensity, fluorescence competitive binding assay, OBP11 (SfurOBP11; ligand concentration 6, replicate 3): 25781
Fluorescence intensity, fluorescence competitive binding assay, OBP11 (SfurOBP11; ligand concentration 8, replicate 1): 23438
Fluorescence intensity, fluorescence competitive binding assay, OBP11 (SfurOBP11; ligand concentration 8, replicate 2): 23156
Fluorescence intensity, fluorescence competitive binding assay, OBP11 (SfurOBP11; ligand concentration 8, replicate 3): 23719
Fluorescence intensity, fluorescence competitive binding assay, OBP11 (SfurOBP11; ligand concentration 10, replicate 1): 22448
Fluorescence intensity, fluorescence competitive binding assay, OBP11 (SfurOBP11; ligand concentration 10, replicate 2): 22213
Fluorescence intensity, fluorescence competitive binding assay, OBP11 (SfurOBP11; ligand concentration 10, replicate 3): 22684
Fluorescence intensity, fluorescence competitive binding assay, OBP11 (SfurOBP11; ligand concentration 12, replicate 1): 22134
Fluorescence intensity, fluorescence competitive binding assay, OBP11 (SfurOBP11; ligand concentration 12, replicate 2): 22969
Fluorescence intensity, fluorescence competitive binding assay, OBP11 (SfurOBP11; ligand concentration 12, replicate 3): 22151
Fluorescence intensity, fluorescence competitive binding assay, OBP11 (SfurOBP11; ligand concentration 14, replicate 1): 21048
Fluorescence intensity, fluorescence competitive binding assay, OBP11 (SfurOBP11; ligand concentration 14, replicate 2): 20368
Fluorescence intensity, fluorescence competitive binding assay, OBP11 (SfurOBP11; ligand concentration 14, replicate 3): 20708
Fluorescence intensity, fluorescence competitive binding assay, OBP11 (SfurOBP11; ligand concentration 16, replicate 1): 19801
Fluorescence intensity, fluorescence competitive binding assay, OBP11 (SfurOBP11; ligand concentration 16, replicate 2): 20307
Fluorescence intensity, fluorescence competitive binding assay, OBP11 (SfurOBP11; ligand concentration 16, replicate 3): 20932
Fluorescence intensity, fluorescence competitive binding assay, OBP11 (SfurOBP11; ligand concentration 18, replicate 1): 20181
Fluorescence intensity, fluorescence competitive binding assay, OBP11 (SfurOBP11; ligand concentration 18, replicate 2): 20256
Fluorescence intensity, fluorescence competitive binding assay, OBP11 (SfurOBP11; ligand concentration 18, replicate 3): 20300
Fluorescence intensity, fluorescence competitive binding assay, OBP11 (SfurOBP11; ligand concentration 20, replicate 1): 20105
Fluorescence intensity, fluorescence competitive binding assay, OBP11 (SfurOBP11; ligand concentration 20, replicate 2): 20028
Fluorescence intensity, fluorescence competitive binding assay, OBP11 (SfurOBP11; ligand concentration 20, replicate 3): 20212
Fluorescence competitive binding assay, fluorescence intensity (SfurOBP3; ligand concentration 2): 37101 and 37506 and 37304
Fluorescence competitive binding assay, fluorescence intensity (SfurOBP3; ligand concentration 4): 36141 and 37871 and 37816
Fluorescence competitive binding assay, fluorescence intensity (SfurOBP3; ligand concentration 6): 36419 and 39158 and 37789
Fluorescence competitive binding assay, fluorescence intensity (SfurOBP3; ligand concentration 8): 33665 and 34797 and 35932
Fluorescence competitive binding assay, fluorescence intensity (SfurOBP3; ligand concentration 10): 33290 and 35900 and 35256
Fluorescence competitive binding assay, fluorescence intensity (SfurOBP3; ligand concentration 12): 29962 and 33001 and 33859
Fluorescence competitive binding assay, fluorescence intensity (SfurOBP3; ligand concentration 14): 28260 and 30707 and 32190
Fluorescence competitive binding assay, fluorescence intensity (SfurOBP3; ligand concentration 16): 28891 and 29426 and 29159
Fluorescence competitive binding assay, fluorescence intensity (SfurOBP3; ligand concentration 18): 26989 and 27471 and 26506
Fluorescence competitive binding assay, fluorescence intensity (SfurOBP3; ligand concentration 20): 26994 and 26547 and 27440
binding affinity to SfurOBP3 (in words) (SfurOBP3; SfurOBP3): high binding affinities
IC50 (SfurOBP3; SfurOBP3, protein and 1-NPN both 2.0 µM, competitor 2-20 µM, read-out: IC50): 15.5 µM
Fluorescence competitive binding assay, fluorescence intensity (SfurOBP1; ligand concentration 2 (μM)): 5565 and 5797 and 5680
Fluorescence competitive binding assay, fluorescence intensity (SfurOBP1; ligand concentration 4 (μM)): 6133 and 7369 and 7766
Fluorescence competitive binding assay, fluorescence intensity (SfurOBP1; ligand concentration 6 (μM)): 7319 and 6450 and 6758
Fluorescence competitive binding assay, fluorescence intensity (SfurOBP1; ligand concentration 8 (μM)): 6247 and 6677 and 6608
Fluorescence competitive binding assay, fluorescence intensity (SfurOBP1; ligand concentration 10 (μM)): 5974 and 6580 and 6200
Fluorescence competitive binding assay, fluorescence intensity (SfurOBP1; ligand concentration 12 (μM)): 6115 and 6844 and 6487
Fluorescence competitive binding assay, fluorescence intensity (SfurOBP1; ligand concentration 14 (μM)): 7227 and 6939 and 7296
Fluorescence competitive binding assay, fluorescence intensity (SfurOBP1; ligand concentration 16 (μM)): 7221 and 7791 and 6651
Fluorescence competitive binding assay, fluorescence intensity (SfurOBP1; ligand concentration 18 (μM)): 6902 and 6623 and 6730
Fluorescence competitive binding assay, fluorescence intensity (SfurOBP1; ligand concentration 20 (μM)): 6454 and 6429 and 6479
IC50 (SfurOBP1; SfurOBP1, protein and 1-NPN both 2.0 µM, competitor 2-20 µM, read-out: IC50): > 20 µM
Compound: CCCCCC(C)=O [2-heptanone]
behavioral response of S. furcifera (in words) (S. furcifera adults): strongly attracted
number of insects choosing hexane arm (S. furcifera adults; adults): 8
number of insects choosing volatilies arm (S. furcifera adults; adults): 21
number of insects failed (no choice) (S. furcifera adults; adults): 11
